Assay results: patent EP4725957A1, “GROUP OF CYCLIC ALKALINE LIPOPEPTIDE COMPOUNDS, AND PREPARATION METHOD THEREFOR AND USE THEREOF” (Institute of Medicinal Biotechnology, Chinese Academy of …, priority 2023, dated 2024)
Converted amounts (≈) assume the structure as drawn. Bridge positions count the residues as written; N and C are the ends. Square brackets hold non-standard residues; d marks the D form. Peptide text beside a SMILES is read from it. * marks the point of attachment. Dab(CH2SO3H) = N[C@@H](CCNCS(=O)(=O)O)C(=O)O; Heptanoyl(6-Me) = CC(C)CCCCC(=O)*; Sulfomethyl = O=S(=O)(O)C*; dOrn = NCCC[C@@H](N)C(=O)O; X1 = CC[C@H](C)CCCCC(=O)*; dDab = NCC[C@@H](N)C(=O)O; Heptanoyl = CCCCCCC(=O)*; Octanoyl = CCCCCCCC(=O)*; Orn = NCCC[C@H](N)C(=O)O; Dab = NCC[C@H](N)C(=O)O; Dap = NC[C@H](N)C(=O)O

Experiments:
Type in all cases: cell-based
[1] = Nephrotoxicity assay: in vitro cytotoxicity of HK-2 cells by CCK-8 assay; conditions: human, HK-2 cells (human renal), 72 h incubation with drug-containing medium
Summary of the method: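 HK-2 human renal cells in RPMI-1640 with 10% FBS were exposed to compounds at final 12.5–500 µg/mL for 72 h, then CCK-8 for 3 h and OD450 read. Viability was normalised to drug-free wells; IC50 came from logarithmic regression over three repeats, with polymyxin B as positive drug.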

[2] = test system: Acinetobacter baumannii NCTC 13304 (OXA-27); conditions: NCTC 13304
Summary of the method: (§1)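 Minimal inhibitory concentrations are measured following CLSI microdilution guidance in MH broth. Test concentrations run from 64 down to 0.03 mg/L in doubling steps, with a final bacterial load of (2-4) × 10^5 CFU/mL and 16-20 h incubation at 35-37°C.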

[3] = test system: Klebsiella pneumoniae KPN+19-15; conditions: KPN+19-15
Summary of the method: as §1

[4] = test system: Escherichia coli ATCC BAA-2340 (KPC); conditions: ATCC BAA-2340
Summary of the method: as §1

[5] = test system: Klebsiella pneumoniae ATCC BAA-1705 (KPC); conditions: ATCC BAA-1705
Summary of the method: as §1

[6] = test system: Acinetobacter baumannii ABA19-1; conditions: ABA19-1
Summary of the method: as §1

[7] = test system: Pseudomonas aeruginosa PAE19-3; conditions: PAE19-3
Summary of the method: as §1

[8] = test system: Pseudomonas aeruginosa ATCC 27853; conditions: ATCC 27853
Summary of the method: as §1

[9] = test system: Escherichia coli ATCC BAA-2523; conditions: ATCC BAA-2523
Summary of the method: as §1

Structure (SMILES)	IC50 at 72 h [1] [µg/mL]	MIC [2] [µg/mL]	MIC [3] [µg/mL]	MIC [4] [µg/mL]	MIC [5] [µg/mL]	MIC [6] [µg/mL]	MIC [7] [µg/mL]	MIC [8] [µg/mL]	MIC [9] [µg/mL]
CC(C)CCCCC(=O)N[C@@H](CCNCS(=O)(=O)O)C(=O)N[C@H](C(=O)N[C@@H](CN)C(=O)N[C@H]1CCNC(=O)[C@H]([C@@H](C)O)NC(=O)[C@H](CCN)NC(=O)[C@H](CCN)NC(=O)[C@H]([C@@H](C)O)NC(=O)[C@@H](Cc2ccccc2)NC(=O)[C@H](CCN)NC1=O)[C@@H](C)O [Compound 117, 6-methylheptanoyl-Dab(CH2SO3H)-Thr-Dap-ring(4-10)[Dab-Dab-D-Phe-Thr-Dab-Dab-Thr]] ({Heptanoyl(6-Me)}-[Dab(CH2SO3H)]T[Dap][Dab][Dab][dF]T[Dab][Dab]T; lactam 4-C)	> 500	0.06 (≈ 0.0477 µM)	0.125 (≈ 0.0994 µM)	0.06 (≈ 0.0477 µM)	0.125 (≈ 0.0994 µM)	0.25 (≈ 0.199 µM)	0.5 (≈ 0.398 µM)	0.25 (≈ 0.199 µM)	0.06 (≈ 0.0477 µM)
CCCCCCC(=O)N[C@@H](CCN)C(=O)N[C@H](C(=O)N[C@H](CCCN)C(=O)N[C@H]1CCNC(=O)[C@H]([C@@H](C)O)NC(=O)[C@H](CCN)NC(=O)[C@H](CCN)NC(=O)[C@H]([C@@H](C)O)NC(=O)[C@@H](Cc2ccccc2)NC(=O)[C@H](CCN)NC1=O)[C@@H](C)O [Compound 24, Heptanoyl-Dab-Thr-D-Orn-ring(4-10)[Dab-Dab-D-Phe-Thr-Dab-Dab-Thr]] (Heptanoyl-[Dab]T[dOrn][Dab][Dab][dF]T[Dab][Dab]T; lactam 4-C)	> 500	0.06 (≈ 0.051 µM)	0.125 (≈ 0.106 µM)	≤0.03	0.06 (≈ 0.051 µM)	0.125 (≈ 0.106 µM)	2 (≈ 1.7 µM)	0.5 (≈ 0.425 µM)	≤0.03
CC(C)CCCCC(=O)N[C@@H](CCN)C(=O)N[C@H](C(=O)N[C@H](CO)C(=O)N[C@H]1CCNC(=O)[C@H]([C@@H](C)O)NC(=O)[C@H](CCN)NC(=O)[C@H](CCN)NC(=O)[C@H]([C@@H](C)OCS(=O)(=O)O)NC(=O)[C@@H](Cc2ccccc2)NC(=O)[C@H](CCN)NC1=O)[C@@H](C)O [Compound 105, 6-methylheptanoyl-Dab-Thr-D-Ser-ring(4-10)[Dab-Dab-D-Phe-Thr(CH2SO3H)-Dab-Dab-Thr]] ({Heptanoyl(6-Me)}-[Dab]T[dS][Dab][Dab][dF]T(Sulfomethyl)[Dab][Dab]T; lactam 4-C)	> 500	0.06 (≈ 0.0477 µM)	0.125 (≈ 0.0993 µM)	0.03 (≈ 0.0238 µM)	0.125 (≈ 0.0993 µM)	0.06 (≈ 0.0477 µM)	0.25 (≈ 0.199 µM)	0.25 (≈ 0.199 µM)	0.03 (≈ 0.0238 µM)
CC(C)CCCCC(=O)N[C@@H](CN)C(=O)N[C@H](C(=O)N[C@H](CCN)C(=O)N[C@H]1CCNC(=O)[C@H]([C@@H](C)O)NC(=O)[C@H](CCN)NC(=O)[C@H](CCN)NC(=O)[C@H](CC(C)C)NC(=O)[C@@H](CC(C)C)NC(=O)[C@H](CCN)NC1=O)[C@@H](C)O [Compound 97, 6-methylheptanoyl-Dap-Thr-D-Dab-ring(4-10)[Dab-Dab-D-Leu-Leu-Dab-Dab-Thr]] ({Heptanoyl(6-Me)}-[Dap]T[dDab][Dab][Dab][dL]L[Dab][Dab]T; lactam 4-C)	217 ± 11.2 (≈ 190 µM)	0.03 (≈ 0.0263 µM)	0.03 (≈ 0.0263 µM)	0.03 (≈ 0.0263 µM)	0.03 (≈ 0.0263 µM)	0.03 (≈ 0.0263 µM)	0.5 (≈ 0.438 µM)	0.5 (≈ 0.438 µM)	0.03 (≈ 0.0263 µM)
CCCCCCCC(=O)N[C@@H](CCN)C(=O)N[C@H](C(=O)N[C@H](CCCN)C(=O)N[C@H]1CCNC(=O)[C@H]([C@@H](C)O)NC(=O)[C@H](CCN)NC(=O)[C@H](CCN)NC(=O)[C@H]([C@@H](C)O)NC(=O)[C@@H](Cc2ccccc2)NC(=O)[C@H](CCN)NC1=O)[C@@H](C)O [Compound 23, Octanoyl-Dab-Thr-D-Orn-ring(4-10)[Dab-Dab-D-Phe-Thr-Dab-Dab-Thr]] (Octanoyl-[Dab]T[dOrn][Dab][Dab][dF]T[Dab][Dab]T; lactam 4-C)	> 500	0.06 (≈ 0.0504 µM)	0.125 (≈ 0.105 µM)	≤0.03	0.06 (≈ 0.0504 µM)	0.125 (≈ 0.105 µM)	1 (≈ 0.839 µM)	0.25 (≈ 0.21 µM)	≤0.03
CC[C@H](C)CCCCC(=O)N[C@@H](CN)C(=O)N[C@H](C(=O)N[C@H](CO)C(=O)N[C@H]1CCNC(=O)[C@H]([C@@H](C)O)NC(=O)[C@H](CCN)NC(=O)[C@H](CCN)NC(=O)[C@H]([C@@H](C)O)NC(=O)[C@@H](Cc2ccccc2)NC(=O)[C@H](CCN)NC1=O)[C@@H](C)O [Compound 51, (S)-6-methyloctanoyl-Dap-Thr-D-Ser-ring(4-10)[Dab-Dab-D-Phe-Thr-Dab-Dab-Thr]] (X1-[Dap]T[dS][Dab][Dab][dF]T[Dab][Dab]T; lactam 4-C)	> 500	0.25 (≈ 0.215 µM)	0.5 (≈ 0.429 µM)	≤0.03	0.25 (≈ 0.215 µM)	0.25 (≈ 0.215 µM)	4 (≈ 3.44 µM)	64 (≈ 55 µM)	≤0.03
CCCCCCCC(=O)N[C@@H](CCN)C(=O)N[C@H](C(=O)N[C@H](CO)C(=O)N[C@H]1CCNC(=O)[C@H]([C@@H](C)O)NC(=O)[C@H](CCN)NC(=O)[C@H](CCCN)NC(=O)[C@H]([C@@H](C)O)NC(=O)[C@@H](Cc2ccccc2)NC(=O)[C@H](CCN)NC1=O)[C@@H](C)O [Compound 78, Octanoyl-Dab-Thr-D-Ser-ring(4-10)[Dab-Dab-D-Phe-Thr-Orn-Dab-Thr]] (Octanoyl-[Dab]T[dS][Dab][Dab][dF]T[Orn][Dab]T; lactam 4-C)	> 500	≤0.03	0.5 (≈ 0.424 µM)	≤0.03	0.25 (≈ 0.212 µM)	0.06 (≈ 0.0509 µM)	64 (≈ 54.3 µM)	>64	≤0.03
CC(C)CCCCC(=O)N[C@@H](CN)C(=O)N[C@H](C(=O)N[C@H](CO)C(=O)N[C@H]1CCNC(=O)[C@H]([C@@H](C)O)NC(=O)[C@H](CCN)NC(=O)[C@H](CCN)NC(=O)[C@H]([C@@H](C)O)NC(=O)[C@@H](Cc2ccccc2)NC(=O)[C@H](CCN)NC1=O)[C@@H](C)O [Compound 52, 6-methylheptanoyl-Dap-Thr-D-Ser-ring(4-10)[Dab-Dab-D-Phe-Thr-Dab-Dab-Thr]] ({Heptanoyl(6-Me)}-[Dap]T[dS][Dab][Dab][dF]T[Dab][Dab]T; lactam 4-C)	> 500	0.25 (≈ 0.217 µM)	0.5 (≈ 0.435 µM)	≤0.03	0.25 (≈ 0.217 µM)	0.25 (≈ 0.217 µM)	4 (≈ 3.48 µM)	64 (≈ 55.6 µM)	≤0.03
CCCCCCC(=O)N[C@@H](CCCN)C(=O)N[C@H](C(=O)N[C@H](CO)C(=O)N[C@H]1CCNC(=O)[C@H]([C@@H](C)O)NC(=O)[C@H](CCN)NC(=O)[C@H](CCN)NC(=O)[C@H]([C@@H](C)O)NC(=O)[C@@H](Cc2ccccc2)NC(=O)[C@H](CCN)NC1=O)[C@@H](C)O [Compound 59, Heptanoyl-Orn-Thr-D-Ser-ring(4-10)[Dab-Dab-D-Phe-Thr-Dab-Dab-Thr]] (Heptanoyl-[Orn]T[dS][Dab][Dab][dF]T[Dab][Dab]T; lactam 4-C)	> 500	0.25 (≈ 0.215 µM)	0.5 (≈ 0.429 µM)	0.25 (≈ 0.215 µM)	0.25 (≈ 0.215 µM)	0.25 (≈ 0.215 µM)	8 (≈ 6.87 µM)	64 (≈ 55 µM)	0.25 (≈ 0.215 µM)
